This is an account of results in patent publication EP3362444B1, “COMPOUNDS” (Exonate Limited, priority 2015, dated 2017).

The target in the test is T1, SRPK1 (Homo sapiens, UniProt Q96SB4).
T1 construct: 0.1 µg of purified SRPK1 kinase
The test is described as follows: In vitro kinase assay (Kinase-Glo), SRPK1 inhibition. The class given is biochemical. To be noted: for IC50: SRPK1 inhibition assay, 1 µM ATP, SRSF1 RS peptide, 30°C 10 minutes. The procedure: Candidate compounds were tested for SRPK1 inhibition using a Kinase-Glo assay (Promega, Southampton, UK32). […] Candidate compounds were serially diluted from 10 µM to 0.5 nM and added to the reaction mixture, wells with omitted SRPK1 kinase and omitted compounds were also added as controls. All wells contained 1% DMSO (Fisher Scientific, Loughborough, UK). One micromolar ATP was added, wells minus ATP were used as background controls. The plate was then incubated at 30°C for 10 minutes. An equal volume of Kinase-Glo (25 µL; Promega) was added to each well and the plate read for luminescence using a Fluostar Optima (BMG Labtech) .
For orientation: Kinase-Glo measures the ATP left after a reaction by luminescence.

T1 sequence (Q96SB4 whole entry): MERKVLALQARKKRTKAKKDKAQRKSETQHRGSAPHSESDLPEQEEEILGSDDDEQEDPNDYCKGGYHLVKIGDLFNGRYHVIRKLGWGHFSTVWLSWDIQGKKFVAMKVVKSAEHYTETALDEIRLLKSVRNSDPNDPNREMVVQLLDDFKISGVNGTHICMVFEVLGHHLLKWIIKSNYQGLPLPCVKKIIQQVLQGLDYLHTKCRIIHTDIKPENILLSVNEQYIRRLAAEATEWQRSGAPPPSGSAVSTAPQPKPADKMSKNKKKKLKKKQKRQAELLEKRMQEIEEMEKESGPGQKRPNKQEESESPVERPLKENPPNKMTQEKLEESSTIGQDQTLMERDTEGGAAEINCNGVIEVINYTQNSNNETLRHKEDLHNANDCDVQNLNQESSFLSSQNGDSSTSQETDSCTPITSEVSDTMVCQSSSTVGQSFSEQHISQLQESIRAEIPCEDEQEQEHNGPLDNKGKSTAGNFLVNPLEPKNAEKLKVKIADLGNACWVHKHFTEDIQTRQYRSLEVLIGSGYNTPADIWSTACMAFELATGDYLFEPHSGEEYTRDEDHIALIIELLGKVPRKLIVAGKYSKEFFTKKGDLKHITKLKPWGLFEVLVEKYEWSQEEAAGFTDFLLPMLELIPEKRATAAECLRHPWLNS

With `O=C(Nc1cc(C(F)(F)F)ccc1N1CCN(Cc2cocn2)CC1)c1ccccc1` [Compound 71, N-(2-(4-(oxazol-4-ylmethyl)piperazin-1-yl)-5-(trifluoromethyl)phenyl) benzamide], the IC50 – broadly, the concentration that inhibits the measured activity by half – turned out to be 718 nM.
Same read-out and setting: as for `O=C(Nc1cc(C(F)(F)F)ccc1N1CCN(Cc2cocn2)CC1)c1ccno1` [Compound 50, N-(2-(4-(oxazol-4-ylmethyl)piperazin-1-yl)-5-(trifluoro-methyl)phenyl)isoxazole-5-carboxamide], the figure is 561 nM; as for `Cn1ccc(CN2CCN(c3ccc(C(F)(F)F)cc3NC(=O)c3ccccn3)CC2)n1` [Compound 34, N-(2-(4-((1-methyl-1H-pyrazol-3-yl)methyl)piperazin-1-yl)-5-(trifluoromethyl)phenyl)picolinamide], 27 nM.
On the same count and under the same terms, as for `O=C(Nc1cc(C(F)(F)F)ccc1N1CCN(Cc2cocn2)CC1)c1cnccn1` [Compound 52, N-(2-(4-(oxazol-4-ylmethyl)piperazin-1-yl)-5-(trifluoro-methyl)phenyl)pyrazine-2-carboxamide], the figure is 162 nM; as for `Cc1ccc(CN2CCN(c3ccc(C(F)(F)F)cc3NC(=O)c3ccc(C4CCOCC4)o3)CC2)o1` [Compound 44, N-(2-(4-((5-methylfuran-2-yl)methyl)piperazin-1-yl)-5-(trifluoromethyl)phenyl)-5-(tetrahydro-2H-pyran-4-yl)furan-2-carboxamide], 3.7 nM; as for `O=C(Nc1cc(C(F)(F)F)ccc1N1CCN(Cc2cncs2)CC1)c1ccccn1` [Compound 32, N-(2-(4-(thiazol-5-ylmethyl)piperazin-1-yl)-5-(trifluoromethyl)phenyl)-picolinamide], 0.5 nM.
In the case of `O=C(Nc1cc(C(F)(F)F)ccc1N1CCN(Cc2cocn2)CC1)c1ncccn1` [Compound 54, N-(2-(4-(oxazol-4-ylmethyl)piperazin-1-yl)-5-(trifluoro-methyl)phenyl)pyrimidine-2-carboxamide], the IC50 is 344 nM.
On the same count and under the same terms, the result for `Cc1ccc(CN2CCN(c3ccc(C(F)(F)F)cc3NC(=O)c3ccco3)CC2)o1` [Compound 48, N-(2-(4-((5-methylfuran-2-yl)methyl)piperazin-1-yl)-5-(trifluoromethyl)phenyl)furan-2-carboxamide] reads 32.6 nM; that for `O=C(Nc1cc(C(F)(F)F)ccc1N1CCN(Cc2cocn2)CC1)c1ccccn1` [Compound 36, N-(2-(4-(oxazol-4-ylmethyl)piperazin-1-yl)-5-(trifluoromethyl)phenyl)-picolinamide], 21.6 nM; that for `O=C(Nc1cc(C(F)(F)F)ccc1N1CCN(Cc2ccno2)CC1)c1ccccn1` [Compound 62, N-(2-(4-(isoxazol-5-ylmethyl)piperazin-1-yl)-5-(trifluoro-methyl)phenyl)picolinamide], 2.8 nM.
On the same count and under the same terms, as for `O=C(Nc1cc(C(F)(F)F)ccc1N1CCN(Cc2ccco2)CC1)c1ccncc1` [Compound 35, N-(2-(4-(furan-2-ylmethyl)piperazin-1-yl)-5-(trifluoromethyl)-phenyl)isonicotinamide], the figure is 388 nM; as for `Cc1ccc(CN2CCN(c3ccc(C(F)(F)F)cc3NC(=O)c3ccc(C)o3)CC2)o1` [Compound 46, 5-methyl-N-(2-(4-((5-methylfuran-2-yl)methyl)piperazin-1-yl)-5-(trifluoromethyl)phenyl)furan-2-carboxamide], 10.7 nM; as for `O=C(Nc1cc(C(F)(F)F)ccc1N1CCN(Cc2cncs2)CC1)c1ccc(C2CCOCC2)o1` [Compound 70, 5-(tetrahydro-2H-pyran-4-yl)-N-(2-(4-(thiazol-5-ylmethyl)piperazin-1-yl)-5-(trifluoromethyl)phenyl)furan-2-carboxamide], 0.5 nM.
On the same count and under the same terms, the result for `O=C(Nc1cc(C(F)(F)F)ccc1N1CCN(Cc2cocn2)CC1)c1cocn1` [Compound 57, N-(2-(4-(oxazol-4-ylmethyl)piperazin-1-yl)-5-(trifluoro-methyl)phenyl)oxazole-4-carboxamide] reads 117 nM; that for `O=C(Nc1cc(C(F)(F)F)ccc1N1CCN(Cc2cocn2)CC1)c1ncco1` [Compound 42, N-(2-(4-(oxazol-4-ylmethyl)piperazin-1-yl)-5-(trifluoro-methyl)phenyl)oxazole-2-carboxamide], 1260 nM; that for `O=C(Nc1cc(C(F)(F)F)ccc1N1CCN(Cc2c[nH]c3ccccc23)CC1)c1ccco1` [Compound 75, N-(2-(4-((1H-indol-3-yl)methyl)piperazin-1-yl)-5-(trifluoromethyl)phenyl)furan-2-carboxamide], 74.9 nM.
In turn, `O=C(Nc1cc(C(F)(F)F)ccc1N1CCN(Cc2cocn2)CC1)c1cccc(C2CCOCC2)n1` [Compound 58, N-(2-(4-(oxazol-4-ylmethyl)piperazin-1-yl)-5-(trifluoromethyl)phenyl)-6-(tetrahydro-2H-pyran-4-yl)picolinamide] came in with a half-maximal inhibitory concentration (IC50) of 104 nM.
Compound `O=C(Nc1cc(C(F)(F)F)ccc1N1CCN(Cc2ccoc2)CC1)c1ccco1` [Compound 47, N-(2-(4-(furan-3-ylmethyl)piperazin-1-yl)-5-(trifluoromethyl)phenyl)furan-2-carboxamide] returned an IC50 of 21.9 nM.
Same read-out and setting: the result for `O=C(Nc1cc(C(F)(F)F)ccc1N1CCN(Cc2cocn2)CC1)c1ccco1` [Compound 39, N-(2-(4-(oxazol-4-ylmethyl)piperazin-1-yl)-5-(trifluoro-methyl)-phenyl)furan-2-carboxamide] reads 60.7 nM; that for `O=C(Nc1cc(C(F)(F)F)ccc1N1CCN(Cc2cnoc2)CC1)c1ccccn1` [Compound 67, N-(2-(4-(isoxazol-4-ylmethyl)piperazin-1-yl)-5-(trifluoro-methyl)phenyl)-picolinamide], 8.8 nM; that for `O=C(Nc1cc(C(F)(F)F)ccc1N1CCN(Cc2cocn2)CC1)c1ccc(C2CCOCC2)cn1` [Compound 59, N-(2-(4-(oxazol-4-ylmethyl)piperazin-1-yl)-5-(trifluoromethyl)phenyl)-5-(tetrahydro-2H-pyran-4-yl)picolinamide], 974 nM.
With `Cc1ccc(CN2CCN(c3ccc(C(F)(F)F)cc3NC(=O)c3ccccn3)CC2)o1` [Compound 40, N-(2-(4-((5-methylfuran-2-yl)methyl)piperazin-1-yl)-5-(trifluoro-methyl)phenyl)picolinamide], inhibition was half-maximal at 145 nM (IC50).
`O=C(Nc1cc(C(F)(F)F)ccc1N1CCN(Cc2cscn2)CC1)c1ccccn1` [Compound 31, N-(2-(4-(thiazol-4-ylmethyl)piperazin-1-yl)-5-(trifluoromethyl)phenyl)-picolinamide] registered an IC50 of 6.7 nM.
The same measure, in the same setting: the result for `Cc1nnc(CN2CCN(c3ccc(C(F)(F)F)cc3NC(=O)c3ccco3)CC2)o1` [Compound 49, N-(2-(4-((5-methyl-1,3,4-oxadiazol-2-yl)methyl)piperazin-1-yl)-5-(trifluoromethyl)phenyl)furan-2-carboxamide] reads 117 nM.
Compound `O=C(Nc1cc(C(F)(F)F)ccc1N1CCN(Cc2ccoc2)CC1)c1ccc(C2CCOCC2)o1` [Compound 43, N-(2-(4-(furan-3-ylmethyl)piperazin-1-yl)-5-(trifluoromethyl)phenyl)-5-(tetrahydro-2H-pyran-4-yl)furan-2-carboxamide] registered an IC50 of 0.7 nM. The “potency against SRPK1 relative to analogous compounds in which R3 is a pyridyl ring” value (by kinase assay or differential scanning fluorimetry, Figures 1 and 2) is given as “improved potency”.
`O=C(Nc1cc(C(F)(F)F)ccc1N1CCN(Cc2cocn2)CC1)c1ccncn1` [Compound 56, N-(2-(4-(oxazol-4-ylmethyl)piperazin-1-yl)-5-(trifluoro-methyl)phenyl)pyrimidine-4-carboxamide] gave an IC50 of 134 nM.
Consider `O=C(Nc1cc(C(F)(F)F)ccc1N1CCN(Cc2ccno2)CC1)c1ccco1` [Compound 63, N-(2-(4-(isoxazol-5-ylmethyl)piperazin-1-yl)-5-(trifluoro-methyl)phenyl)furan-2-carboxamide], for which the IC50 was found to be 317 nM.
Still for that read-out and setting: the result for `O=C(Nc1cc(C(F)(F)F)ccc1N1CCN(Cc2ccoc2)CC1)c1ccccn1` [Compound 72, N-(2-(4-(furan-3-ylmethyl)piperazin-1-yl)-5-(trifluoromethyl)phenyl)picolinamide] reads 5.3 nM; that for `O=C(Nc1cc(C(F)(F)F)ccc1N1CCN(Cc2c[nH]c3ccccc23)CC1)c1ccccn1` [Compound 38, N-(2-(4-((1H-indol-3-yl)methyl)piperazin-1-yl)-5-(trifluoromethyl)phenyl)picolinamide], 31.3 nM; that for `O=C(Nc1cc(C(F)(F)F)ccc1N1CCN(Cc2cocn2)CC1)c1cc[nH]n1` [Compound 53, N-(2-(4-(oxazol-4-ylmethyl)piperazin-1-yl)-5-(trifluoro-methyl)phenyl)-1H-pyrazole-3-carboxamide], 83.1 nM.
Take `O=C(Nc1cc(C(F)(F)F)ccc1N1CCN(Cc2cc[nH]n2)CC1)c1ccccn1` [Compound 33, N-(2-(4-((1H-pyrazol-3-yl)methyl)piperazin-1-yl)-5-(trifluoromethyl)-phenyl)picolinamide]: the IC50 is 12.7 nM.
On to `O=C(Nc1cc(C(F)(F)F)ccc1N1CCN(Cc2cocn2)CC1)c1cc2ccccc2o1` [Compound 51, N-(2-(4-(oxazol-4-ylmethyl)piperazin-1-yl)-5-(trifluoro-methyl)-phenyl)benzofuran-2-carboxamide], for which inhibition was half-maximal at 21 nM (IC50).
In turn, `O=C(Nc1cc(C(F)(F)F)ccc1N1CCN(Cc2cocn2)CC1)c1nc2ccccc2o1` [Compound 55, N-(2-(4-(oxazol-4-ylmethyl)piperazin-1-yl)-5-(trifluoromethyl)phenyl)benzo[d]oxazole-2-carboxamide] gave an IC50 of 1840 nM.
For `Cc1ccc(C(=O)Nc2cc(C(F)(F)F)ccc2N2CCN(Cc3ccoc3)CC2)o1` [Compound 45, N-(2-(4-(furan-3-ylmethyl)piperazin-1-yl)-5-(trifluoromethyl)phenyl)-5-methylfuran-2-carboxamide], the IC50 came to 1.8 nM.
